Experiment: Small volume in vitro release test in 50 ml 0.1N HCl (model of fasted stomach)
Format: physicochemical
Settings: 37° C., 150 rpm
Experimental: The formulations were tested for their small volume in vitro release characteristics in 50 ml 0.1N HCl at 37° C. and 150 rpm using the following procedure: III. Instrumentation (or Equivalent) a. Automated Dissolution System comprising of: Hanson SR8 Plus Test Station Hanson Auto Plus Maximiser System Controller Hanson Auto Plus MultiFill Fraction Collector b. HPLC System comprising of: pump—Merck Hitachi L-7100 autoinjector—Merck Hitachi L-7200 column oven—Merck Hitachi L-7300 detector—Merck Hitachi L-7400 interface and integration software—Merck Hitachi D-7000
0.1N HCl Preparation Dilute 8.5 ml HCl 37% to 1 liter with purified water. Procedure Place one weighed capsule in each vessel containing 0.1N HCl and immediately operate the apparatus for 30 min. Unless otherwise specified, 3 ml samples are withdrawn from each vessel and immediately filtered through PTFE membranes at 15 and 30 min.
The small volume was chosen as a model of the conditions in a fasted stomach.

## CC(C)OC(=O)C(C)(C)Oc1ccc(C(=O)c2ccc(Cl)cc2)cc1 [Micronized Fenofibrate]
  dissolution in 50 ml 0.1N HCl (in words): no dissolution at all
15 min
  % dissolved 15 min: 0%
30 min
  % dissolved 30 min: 0%
